Measurements taken from paper PMC9448386, “Discovery of novel conjugates of quinoline and thiazolidinone urea as potential anti-colorectal cancer agent” (Journal of Enzyme Inhibition and Medicinal Chemistry, 2022).

What was measured:
HT-29 cells = assay: MTT assay, cytotoxic activity against HT-29; format: cell-based, human; conditions: SD shown
Source text: (§1) Taking lead compound BC2021-104511-15i, Fruquintinib and Regorafenib as positive controls, the cytotoxic activity against HT-29, HCT-116, COLO-205 and FHC cell lines by MTT assay. Detailed operation could be found in our previous study.

HCT-116 cells = assay: MTT assay, cytotoxic activity against HCT-116; format: cell-based; conditions: Homo sapiens, average of three separate determinations, SD shown
Source text: as §1

Ron (MST1R) = conditions: Figure 1; cited from earlier work
HGFR = HGFR (Homo sapiens, UniProt P08581); assay: Mobility shift assay, HGFR kinase inhibition; format: biochemical; conditions: mean of two independent experiments
Sequence of HGFR (P08581 25-1390): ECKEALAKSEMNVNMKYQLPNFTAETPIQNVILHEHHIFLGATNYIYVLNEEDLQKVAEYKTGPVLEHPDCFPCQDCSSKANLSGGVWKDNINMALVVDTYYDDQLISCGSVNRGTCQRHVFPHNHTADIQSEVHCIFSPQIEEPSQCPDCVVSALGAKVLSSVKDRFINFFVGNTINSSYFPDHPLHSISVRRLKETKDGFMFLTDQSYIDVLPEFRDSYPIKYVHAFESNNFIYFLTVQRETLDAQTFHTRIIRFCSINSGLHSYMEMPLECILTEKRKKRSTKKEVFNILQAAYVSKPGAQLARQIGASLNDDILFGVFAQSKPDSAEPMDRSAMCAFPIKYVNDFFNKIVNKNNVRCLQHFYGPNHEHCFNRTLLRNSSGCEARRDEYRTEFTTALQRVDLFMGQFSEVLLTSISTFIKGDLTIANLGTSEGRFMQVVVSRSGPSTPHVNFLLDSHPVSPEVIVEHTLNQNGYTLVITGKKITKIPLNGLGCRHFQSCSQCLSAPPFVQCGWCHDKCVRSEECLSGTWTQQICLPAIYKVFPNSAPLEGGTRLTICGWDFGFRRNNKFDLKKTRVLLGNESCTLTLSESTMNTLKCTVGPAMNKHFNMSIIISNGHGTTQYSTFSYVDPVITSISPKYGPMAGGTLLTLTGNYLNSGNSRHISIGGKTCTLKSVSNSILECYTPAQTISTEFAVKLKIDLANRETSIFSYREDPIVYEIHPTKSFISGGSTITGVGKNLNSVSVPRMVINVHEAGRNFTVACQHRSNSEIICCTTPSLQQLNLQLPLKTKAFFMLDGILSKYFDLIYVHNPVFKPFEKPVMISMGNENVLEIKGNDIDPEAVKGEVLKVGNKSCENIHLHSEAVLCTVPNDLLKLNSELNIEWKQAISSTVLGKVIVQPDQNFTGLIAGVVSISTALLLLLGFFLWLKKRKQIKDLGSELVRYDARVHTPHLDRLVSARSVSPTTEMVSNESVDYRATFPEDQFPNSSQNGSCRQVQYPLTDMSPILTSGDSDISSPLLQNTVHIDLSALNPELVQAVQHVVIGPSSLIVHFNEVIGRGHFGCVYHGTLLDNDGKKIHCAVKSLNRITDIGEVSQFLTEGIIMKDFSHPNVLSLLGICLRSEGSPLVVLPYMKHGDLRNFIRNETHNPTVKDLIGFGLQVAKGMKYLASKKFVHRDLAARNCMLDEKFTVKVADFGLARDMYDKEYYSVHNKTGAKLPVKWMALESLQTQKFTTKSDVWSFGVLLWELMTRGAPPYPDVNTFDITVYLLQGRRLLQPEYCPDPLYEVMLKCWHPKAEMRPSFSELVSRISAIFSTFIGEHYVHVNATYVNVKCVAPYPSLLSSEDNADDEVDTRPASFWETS
Protocol: (§2) Kinase inhibitory activity against HGFR, MST1R, ABL, PDGFRβ, AXL, FLT3, RET, c-Src, and VEGFR-2 was evaluated by the mobility shift assay. Detailed operation could be found in our previous research.

COLO 205 cells = assay: MTT assay, cytotoxic activity against COLO 205; format: cell-based; conditions: MTT, average of three separate determinations, SD shown
Source text: as §1

MST1R = MST1R (Homo sapiens, UniProt Q04912); assay: Mobility shift assay, MST1R kinase inhibition; format: biochemical; conditions: mean of two independent experiments
Sequence of MST1R (Q04912 25-1400): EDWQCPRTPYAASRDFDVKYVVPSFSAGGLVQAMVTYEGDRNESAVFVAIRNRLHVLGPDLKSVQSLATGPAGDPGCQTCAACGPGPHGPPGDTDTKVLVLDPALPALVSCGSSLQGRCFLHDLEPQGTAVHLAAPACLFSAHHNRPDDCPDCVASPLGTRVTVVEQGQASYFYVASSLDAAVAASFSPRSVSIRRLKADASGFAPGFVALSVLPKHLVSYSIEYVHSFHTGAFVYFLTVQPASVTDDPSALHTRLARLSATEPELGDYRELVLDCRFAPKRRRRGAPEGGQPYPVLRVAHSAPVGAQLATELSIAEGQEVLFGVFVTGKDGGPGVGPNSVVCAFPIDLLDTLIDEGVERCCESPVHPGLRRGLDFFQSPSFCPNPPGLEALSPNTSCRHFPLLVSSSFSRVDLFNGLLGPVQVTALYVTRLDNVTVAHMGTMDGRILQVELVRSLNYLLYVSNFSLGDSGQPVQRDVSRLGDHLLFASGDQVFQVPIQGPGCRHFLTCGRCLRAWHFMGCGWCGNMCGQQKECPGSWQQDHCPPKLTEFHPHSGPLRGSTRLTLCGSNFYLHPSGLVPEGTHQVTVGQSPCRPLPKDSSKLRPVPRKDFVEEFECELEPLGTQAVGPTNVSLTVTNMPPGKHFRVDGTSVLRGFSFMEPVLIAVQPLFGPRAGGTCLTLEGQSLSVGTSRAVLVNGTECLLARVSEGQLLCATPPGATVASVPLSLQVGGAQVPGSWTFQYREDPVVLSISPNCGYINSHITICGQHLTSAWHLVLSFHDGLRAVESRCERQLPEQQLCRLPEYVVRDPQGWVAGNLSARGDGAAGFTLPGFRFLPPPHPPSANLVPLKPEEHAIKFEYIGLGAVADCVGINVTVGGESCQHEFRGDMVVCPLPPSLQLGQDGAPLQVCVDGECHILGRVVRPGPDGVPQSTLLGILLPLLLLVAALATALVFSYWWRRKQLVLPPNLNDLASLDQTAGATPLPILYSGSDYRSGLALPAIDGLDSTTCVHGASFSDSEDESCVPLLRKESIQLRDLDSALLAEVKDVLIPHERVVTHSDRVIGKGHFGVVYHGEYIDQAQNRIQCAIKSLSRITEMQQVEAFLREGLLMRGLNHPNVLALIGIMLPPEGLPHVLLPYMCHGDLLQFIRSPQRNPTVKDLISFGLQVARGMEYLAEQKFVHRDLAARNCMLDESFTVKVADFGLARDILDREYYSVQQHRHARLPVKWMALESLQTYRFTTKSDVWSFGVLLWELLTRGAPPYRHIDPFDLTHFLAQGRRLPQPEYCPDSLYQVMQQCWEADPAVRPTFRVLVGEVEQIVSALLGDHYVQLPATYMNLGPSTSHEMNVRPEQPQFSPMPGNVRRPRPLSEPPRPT
Protocol: as §2

AXL = biological target: T1, AXL (Homo sapiens, UniProt P30530); assay: Mobility shift assay, AXL; format: biochemical; conditions: mean of two independent experiments, SD shown
T1 sequence (P30530 26-894): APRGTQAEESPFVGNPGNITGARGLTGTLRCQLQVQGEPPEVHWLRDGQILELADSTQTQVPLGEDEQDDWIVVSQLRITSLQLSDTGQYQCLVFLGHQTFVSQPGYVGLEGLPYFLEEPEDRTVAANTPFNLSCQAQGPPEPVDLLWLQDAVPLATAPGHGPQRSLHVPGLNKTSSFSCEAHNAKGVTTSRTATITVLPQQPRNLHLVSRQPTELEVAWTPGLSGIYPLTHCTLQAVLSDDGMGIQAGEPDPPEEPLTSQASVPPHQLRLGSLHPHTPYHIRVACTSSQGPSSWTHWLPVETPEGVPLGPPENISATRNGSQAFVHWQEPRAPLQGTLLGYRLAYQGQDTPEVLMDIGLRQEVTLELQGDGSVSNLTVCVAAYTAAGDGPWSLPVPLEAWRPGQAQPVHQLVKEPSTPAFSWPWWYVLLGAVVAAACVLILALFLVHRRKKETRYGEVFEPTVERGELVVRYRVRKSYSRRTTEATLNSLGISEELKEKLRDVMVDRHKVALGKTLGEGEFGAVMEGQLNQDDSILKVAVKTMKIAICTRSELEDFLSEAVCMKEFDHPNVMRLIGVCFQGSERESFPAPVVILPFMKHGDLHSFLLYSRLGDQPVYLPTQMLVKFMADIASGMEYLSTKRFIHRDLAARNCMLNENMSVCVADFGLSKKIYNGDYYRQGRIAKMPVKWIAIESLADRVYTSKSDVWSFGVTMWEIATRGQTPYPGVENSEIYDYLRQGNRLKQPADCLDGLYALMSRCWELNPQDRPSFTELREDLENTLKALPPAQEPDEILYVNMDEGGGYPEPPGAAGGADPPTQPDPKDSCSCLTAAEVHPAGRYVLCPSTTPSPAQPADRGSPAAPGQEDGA
Protocol: as §2

[1] = MTT assay, cytotoxicity against FHC cells; format: cell-based; conditions: FHC cells (normal colorectal mucosa epithelial cells); human normal colorectal mucosa epithelial cells; average of three separate determinations
Protocol: In order to investigate the cell selectivity index, the cytotoxicity of potent compounds against human normal colorectal mucosa epithelial cell FHC cells was determined.
as §1

FLT3 = biological target: T2, FLT3 (Homo sapiens, UniProt P36888); assay: Mobility shift assay, FLT3; format: biochemical; conditions: mean of two independent experiments, SD shown
T2 sequence (P36888 27-993): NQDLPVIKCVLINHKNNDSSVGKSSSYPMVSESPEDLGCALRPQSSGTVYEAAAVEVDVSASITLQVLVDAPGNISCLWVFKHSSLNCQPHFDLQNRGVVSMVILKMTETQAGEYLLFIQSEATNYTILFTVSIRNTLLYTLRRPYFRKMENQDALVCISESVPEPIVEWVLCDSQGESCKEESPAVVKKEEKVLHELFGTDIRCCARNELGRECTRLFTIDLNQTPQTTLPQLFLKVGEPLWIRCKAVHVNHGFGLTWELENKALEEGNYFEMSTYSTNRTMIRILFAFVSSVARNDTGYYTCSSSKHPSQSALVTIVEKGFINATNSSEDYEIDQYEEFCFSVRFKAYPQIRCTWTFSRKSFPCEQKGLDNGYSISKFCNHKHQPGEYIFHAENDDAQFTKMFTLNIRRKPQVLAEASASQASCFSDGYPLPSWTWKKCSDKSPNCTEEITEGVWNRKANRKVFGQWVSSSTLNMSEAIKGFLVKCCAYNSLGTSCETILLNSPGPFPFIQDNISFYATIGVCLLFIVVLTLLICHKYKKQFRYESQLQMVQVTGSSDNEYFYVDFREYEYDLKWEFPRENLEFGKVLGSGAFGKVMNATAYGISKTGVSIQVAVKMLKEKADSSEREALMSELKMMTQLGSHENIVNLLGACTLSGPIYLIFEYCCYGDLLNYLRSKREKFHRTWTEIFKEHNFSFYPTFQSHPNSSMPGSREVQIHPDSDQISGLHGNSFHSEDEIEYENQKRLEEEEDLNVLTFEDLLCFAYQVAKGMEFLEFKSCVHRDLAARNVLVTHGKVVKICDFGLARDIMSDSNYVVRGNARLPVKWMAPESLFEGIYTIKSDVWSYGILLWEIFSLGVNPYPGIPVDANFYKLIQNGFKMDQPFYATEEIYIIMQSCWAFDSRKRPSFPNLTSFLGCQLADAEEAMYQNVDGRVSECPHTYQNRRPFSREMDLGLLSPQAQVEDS
Protocol: as §2

PDGFRβ = PDGFRβ (Homo sapiens, UniProt P09619); assay: Mobility shift assay, PDGFRβ; format: biochemical; conditions: mean of two independent experiments, SD shown
Sequence of PDGFRβ (P09619 33-1106): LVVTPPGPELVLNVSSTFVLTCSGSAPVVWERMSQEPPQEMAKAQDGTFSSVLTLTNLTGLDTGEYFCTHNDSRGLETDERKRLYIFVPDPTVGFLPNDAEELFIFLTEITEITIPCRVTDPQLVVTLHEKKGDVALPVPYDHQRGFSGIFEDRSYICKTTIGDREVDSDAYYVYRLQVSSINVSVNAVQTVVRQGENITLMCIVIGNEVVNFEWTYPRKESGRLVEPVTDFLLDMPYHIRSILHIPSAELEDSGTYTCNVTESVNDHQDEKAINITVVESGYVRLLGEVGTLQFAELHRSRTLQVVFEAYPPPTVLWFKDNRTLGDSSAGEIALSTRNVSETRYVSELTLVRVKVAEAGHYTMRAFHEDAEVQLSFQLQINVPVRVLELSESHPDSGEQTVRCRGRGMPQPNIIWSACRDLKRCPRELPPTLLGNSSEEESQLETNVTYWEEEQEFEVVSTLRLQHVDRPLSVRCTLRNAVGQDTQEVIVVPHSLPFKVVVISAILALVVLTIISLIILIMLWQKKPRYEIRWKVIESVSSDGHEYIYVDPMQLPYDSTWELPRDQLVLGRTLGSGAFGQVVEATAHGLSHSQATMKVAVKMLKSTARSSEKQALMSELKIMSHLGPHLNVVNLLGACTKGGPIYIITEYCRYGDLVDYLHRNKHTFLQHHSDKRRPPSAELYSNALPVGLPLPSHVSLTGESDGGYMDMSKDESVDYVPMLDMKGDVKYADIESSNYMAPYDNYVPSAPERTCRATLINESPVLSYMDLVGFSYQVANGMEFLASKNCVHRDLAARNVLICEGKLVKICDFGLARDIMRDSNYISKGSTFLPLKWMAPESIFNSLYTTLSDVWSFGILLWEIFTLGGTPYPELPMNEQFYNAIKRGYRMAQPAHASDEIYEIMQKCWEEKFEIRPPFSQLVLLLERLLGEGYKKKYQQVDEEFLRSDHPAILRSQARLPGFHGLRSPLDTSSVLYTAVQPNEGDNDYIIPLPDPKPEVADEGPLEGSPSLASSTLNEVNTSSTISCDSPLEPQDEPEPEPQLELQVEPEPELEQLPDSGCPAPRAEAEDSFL
Protocol: as §2

ABL = ABL (Homo sapiens, UniProt P00519); assay: Mobility shift assay, ABL; format: biochemical; conditions: mean of two independent experiments, SD shown
Protocol: as §2

c-Src = c-Src (Homo sapiens, UniProt P12931); assay: Mobility shift assay, c-Src; format: biochemical; conditions: mean of two independent experiments, SD shown
Protocol: as §2

VEGFR-2 = VEGFR-2 (Homo sapiens, UniProt P35968); assay: Mobility shift assay, VEGFR-2; format: biochemical; conditions: mean of two independent experiments, SD shown
Sequence of VEGFR-2 (P35968 20-1356): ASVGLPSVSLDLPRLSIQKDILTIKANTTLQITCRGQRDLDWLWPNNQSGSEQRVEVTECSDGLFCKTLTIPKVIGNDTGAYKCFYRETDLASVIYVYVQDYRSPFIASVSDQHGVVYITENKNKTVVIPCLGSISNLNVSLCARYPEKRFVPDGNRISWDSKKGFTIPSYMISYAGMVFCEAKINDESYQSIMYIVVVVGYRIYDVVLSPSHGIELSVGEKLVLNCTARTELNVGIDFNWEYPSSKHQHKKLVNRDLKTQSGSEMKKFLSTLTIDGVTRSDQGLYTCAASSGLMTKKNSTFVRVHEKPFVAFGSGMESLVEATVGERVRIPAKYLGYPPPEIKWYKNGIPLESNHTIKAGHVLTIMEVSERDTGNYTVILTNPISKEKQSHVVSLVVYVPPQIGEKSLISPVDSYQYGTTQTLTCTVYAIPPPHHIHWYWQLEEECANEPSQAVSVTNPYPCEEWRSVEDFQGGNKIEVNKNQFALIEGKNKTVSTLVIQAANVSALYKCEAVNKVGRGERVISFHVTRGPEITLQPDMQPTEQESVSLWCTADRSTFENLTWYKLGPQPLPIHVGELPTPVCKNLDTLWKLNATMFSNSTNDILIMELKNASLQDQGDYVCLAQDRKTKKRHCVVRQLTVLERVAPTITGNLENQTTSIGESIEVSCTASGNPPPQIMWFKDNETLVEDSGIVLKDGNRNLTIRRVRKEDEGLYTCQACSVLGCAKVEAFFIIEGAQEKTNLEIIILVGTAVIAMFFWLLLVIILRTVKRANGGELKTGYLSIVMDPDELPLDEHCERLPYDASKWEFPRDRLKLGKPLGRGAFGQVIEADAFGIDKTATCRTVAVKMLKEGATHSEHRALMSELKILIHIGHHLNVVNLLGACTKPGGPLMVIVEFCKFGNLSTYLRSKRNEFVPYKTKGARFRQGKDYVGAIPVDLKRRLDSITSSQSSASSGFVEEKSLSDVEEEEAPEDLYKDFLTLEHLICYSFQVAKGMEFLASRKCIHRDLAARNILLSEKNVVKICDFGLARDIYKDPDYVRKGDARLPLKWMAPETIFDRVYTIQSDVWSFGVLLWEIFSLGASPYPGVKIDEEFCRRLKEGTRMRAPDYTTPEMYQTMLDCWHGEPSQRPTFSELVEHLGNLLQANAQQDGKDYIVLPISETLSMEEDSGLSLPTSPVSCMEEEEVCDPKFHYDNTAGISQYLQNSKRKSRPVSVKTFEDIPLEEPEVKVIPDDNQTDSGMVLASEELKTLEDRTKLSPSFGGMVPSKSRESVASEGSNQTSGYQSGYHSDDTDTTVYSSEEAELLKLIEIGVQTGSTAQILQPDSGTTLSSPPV
Protocol: as §2

RET = RET (Homo sapiens, UniProt P07949); assay: Mobility shift assay, RET; format: biochemical; conditions: mean of two independent experiments, SD shown
Protocol: as §2

[2] = Homo sapiens, HT-29, average of three separate determinations

IC50 (HGFR) [µM] | IC50 (MST1R) [µM] | Molecule | IC50 (HT-29 cells; [2]) [µM] | IC50 (HCT-116 cells) [µM] | IC50 (COLO 205 cells; Homo sapiens, COLO 205) [µM] | IC50 [1] [µM] | further results
0.18 | 0.085 | COCC(=O)N1CCC(Oc2cc3nccc(Oc4ccc(NC(=O)NN5C(=O)CSC5c5c(F)cccc5F)cc4F)c3cc2OC)CC1 (stereo not drawn) [Compound 10b, 1–(2-(2,6-Difluorophenyl)-4-oxothiazolidin-3-yl)-3–(3-fluoro-4-((6-methoxy-7-((1–(2-methoxyacetyl)piperidin-4-yl)oxy)quinolin-4-yl)oxy)phenyl)urea] | 3 ± 0.24 | 3.7 ± 0.34 | 0.31 ± 0.021 | > 10 | IC50 (AXL): 1.5 ± 0.15 µM; IC50 (FLT3): > 10 µM; IC50 (PDGFRβ): 1.2 ± 0.095 µM; IC50 (ABL): 3.28 ± 0.26 µM; IC50 (c-Src): 0.69 ± 0.057 µM; IC50 (VEGFR-2): 2.36 ± 0.18 µM; IC50 (RET): 1.52 ± 0.14 µM
0.9 | 0.44 | COc1cc2c(Oc3ccc(NC(=O)NN4C(=O)CSC4c4c(F)cccc4F)cc3F)ccnc2cc1OC1CCN(C(=O)CN(C)C)CC1 (stereo not drawn) [Compound 10d, 1–(2-(2,6-Difluorophenyl)-4-oxothiazolidin-3-yl)-3–(4-((7-((1-(dimethylglycyl)piperidin-4-yl)oxy)-6-methoxyquinolin-4-yl)oxy)-3-fluorophenyl)urea] | 2.9 ± 0.19 | 2.4 ± 0.26 | 4.9 ± 0.38 | > 10 | –
0.22 | 0.16 | COc1cc2c(Oc3ccc(NC(=O)NN4C(=O)CSC4c4c(F)cccc4F)cc3F)ccnc2cc1OC1CCN(C(=O)CO)CC1 (stereo not drawn) [Compound 10h, 1–(2-(2,6-Difluorophenyl)-4-oxothiazolidin-3-yl)-3–(3-fluoro-4-((7-((1–(2-hydroxyacetyl)piperidin-4-yl)oxy)-6-methoxyquinolin-4-yl)oxy)phenyl)urea] | 6.5 ± 0.43 | – | 0.85 ± 0.073 | > 10 | –
0.27 | 0.11 | CCN(CC)C(=O)N1CCC(Oc2cc3nccc(Oc4ccc(NC(=O)NN5C(=O)CSC5c5c(F)cccc5F)cc4F)c3cc2OC)CC1 (stereo not drawn) [BC2021-104511-15i, 4-((4-(4-(3-(2-(2,6-difluorophenyl)-4-oxothiazolidin-3-yl)ureido)-2-fluorophenoxy)-6-methoxyquinolin-7-yl)oxy)-N,N-diethylpiperidine-1-carboxamide, reference compound] | 0.79 ± 0.058 | 4.8 ± 0.44 | 0.72 ± 0.065 | – | –

The next lines start with the molecule.

Molecule | IC50 (HGFR) [µM] | IC50 (MST1R) [µM] | IC50 (HT-29 cells; [2]) [µM] | IC50 (HCT-116 cells) [µM] | IC50 (COLO 205 cells; Homo sapiens, COLO 205) [µM] | IC50 [1] [µM] | further results
COc1cc2c(Nc3ccc(NC(=O)NN4C(=O)CSC4c4c(F)cccc4F)cc3F)ccnc2cc1OC1CCN(CC(N)=O)CC1 (stereo not drawn) [Compound 10i, 2–(4-((4-((4–(3-(2–(2,6-Difluorophenyl)-4-oxothiazolidin-3-yl)ureido)-2-fluorophenyl)amino)-6-methoxyquinolin-7-yl)oxy)piperidin-1-yl)acetamide] | – | – | > 10 | > 10 | – | – | –
CCOc1ccn(-c2ccc(F)cc2)c(=O)c1C(=O)Nc1ccc(Oc2ccnc(N)c2Cl)c(F)c1 [BMS-777607] | – | – | – | – | – | – | IC50 (Ron (MST1R)): 0.0018 µM
COc1cc2c(Oc3ccc(NC(=O)NN4C(=O)CSC4c4c(F)cccc4F)cc3F)ccnc2cc1OC1CCN(C(=O)COC(C)=O)CC1 (stereo not drawn) [Compound 10g, 2–(4-((4–(4-(3–(2-(2,6-Difluorophenyl)-4-oxothiazolidin-3-yl)ureido)-2-fluorophenoxy)-6-methoxyquinolin-7-yl)oxy)piperidin-1-yl)-2-oxoethyl acetate] | 0.18 | 0.11 | 6.9 ± 0.47 | 4.8 ± 0.44 | 0.59 ± 0.045 | – | –
CNC(=O)c1cc(Oc2ccc(NC(=O)Nc3ccc(Cl)c(C(F)(F)F)c3)c(F)c2)ccn1 [Regorafenib, reference compound] | – | – | 8.49 | 8.2 ± 0.75 | > 10 | – | –
2–(4-((4–(4-(3–(2-(2,6-Difluorophenyl)-4-oxotetrahydrothiophen-3-yl)ureido)-2-fluorophenoxy)-6-methoxyquinazolin-7-yl)oxy)piperidin-1-yl)acetamide [Compound 19] | – | – | – | – | – | – | IC50 (HT-29 cells; average of three separate determinations): 8.6 ± 0.67 µM; IC50 (COLO 205 cells): 5.3 ± 0.47 µM
Cn1cc(-c2cnc3ccc4ccc(CS(=O)(=O)NCc5ccccn5)cc4c(=O)c3c2)cn1 [MK-8033, 1-[3-(1-Methyl-1H-pyrazol-4-yl)-5-oxo-5H-benzo[4,5]cyclohepta[1,2-b]pyridin-7-yl]-N-(pyridin-2-ylmethyl)methanesulfonamide] | – | – | – | – | – | – | IC50 (Ron (MST1R)): 0.007 µM
CNC(=O)CN1CCC(Oc2cc3nccc(Oc4ccc(NC(=O)NN5C(=O)CSC5c5c(F)cccc5F)cc4F)c3cc2OC)CC1 (stereo not drawn) [Compound 10c, 2–(4-((4–(4-(3–(2-(2,6-Difluorophenyl)-4-oxothiazolidin-3-yl)ureido)-2-fluorophenoxy)-6-methoxyquinolin-7-yl)oxy)piperidin-1-yl)-N-methylacetamide] | 0.14 | 0.072 | 4.1 ± 0.27 | 5.9 ± 0.53 | 0.44 ± 0.038 | – | –
CNC(=O)c1c(C)oc2cc(Oc3ncnc4cc(OC)c(OC)cc34)ccc12 [Fruquintinib, reference compound] | – | – | 1.57 | 2.2 ± 0.17 | > 10 | – | –
COc1cc2c(Oc3ccc(NC(=O)NN4C(=O)CSC4c4c(F)cccc4F)cc3F)ccnc2cc1OC1CCN(CC(=O)N2CCOCC2)CC1 (stereo not drawn) [Compound 10f, 1–(2-(2,6-Difluorophenyl)-4-oxothiazolidin-3-yl)-3–(3-fluoro-4-((6-methoxy-7-((1–(2-morpholino-2-oxoethyl)piperidin-4-yl)oxy)quinolin-4-yl)oxy)phenyl)urea] | 0.14 | 0.078 | 1.9 ± 0.11 | 2.6 ± 0.27 | 0.42 ± 0.034 | > 10 | –
